Literature values, collected in patent US6156769A (priority 2000, dated 2000).

System: pruritus
Conditions: i.v. morphine

## CN1CC[C@]23c4c5ccc(O)c4O[C@H]2[C@@H](O)C=C[C@H]3[C@H]1C5 [morphine]
  generalized itching: about 1 % of patients
